Entries after “also recorded” stand apart in the source; their conditions may differ.
What was measured:
[1] = cited from earlier work; for serum cholesterol levels: mice fed a low cholesterol diet; for elevated serum cholesterol levels: mice, induced by high cholesterol diets
[2] = test system: tumor initiation and progression; details: long-term rat studies; cited from earlier work
[3] = test system: benign prostatic hyperplasia; details: controlled double blind study; cited from earlier work
[4] = test system: LNCaP cells transfected with HB-EGF; test: SCID mice transplanted subcutaneously with LNCaP cells transfected with HB-EGF, high cholesterol diet; format: in vivo; details: for tumor growth and progression vs untreated controls: 10 mg/kg body weight in diet, started 2 weeks after implantation, 6-12 weeks of treatment, intact and castrated animals; for tumor volumes: progression and growth of the implanted tumors vs untreated controls: 30 mg/kg of body weight, started 2 weeks after tumor implantation, after 12 weeks, high cholesterol diet
Source text: Prostate cancer is a leading cause of mortality in males in North America with between 30,000 to 40,000 deaths per year in the United States. While chemotherapy has not been very efficacious in the treatment of prostate cancer, an alternative approach has been to target prostate cancer cell survival pathways, particularly the PI3 kinase/Akt/PTEN signaling axis, which has been identified as an important cell survival mechanism in PCa and other cancers. Recently it has been determined that membrane cholesterol is an important component of a mechanism that transfers survival signals from the cell exterior to the Akt1 serine-threonine kinase. It has also been shown recently that elevated serum cholesterol accelerates the growth, lowers the extent of cellular apotosis, and increases the level of Akt activation in prostate tumors within a murine prostate cancer model. Findings indicate that cholesterol plays a critical role in the ability of prostate cancer cells to resist apoptotic stimuli. The role of cholesterol in prostate cancer cell survival is so critical that drugs that bind cholesterol (polyene macrolides), extract cholesterol from membranes (cyclodextrin) or block cholesterol synthesis (statins) all alter essential membranes (lipid rafts) and reduce their capacity to regulate cell signaling. Cholesterol plays a crucial role in specifically regulating prostate cancer growth and survival. In these studies a unique prostate murine model system is used. This model features the human prostate adenocarcinoma cell line, LNCaP transfected with HB-EGF. LNCAP cells resemble typical prostate tumor cells in their general morphology, production of PSA and PTEN null status. Stable transfection with HB-EGF, a physiologically relevant EGFR ligand that originates in the prostatic stroma, permits LNCaP cells to form tumors in vivo in an androgen—independent manner. Subcutaneous implantation of these LNCaP cells into 4 quadrants of SCID mice results in rapid tumor growth in intact and castrated mice over an eight week period. […] Mice placed on a high cholesterol diet 4 weeks prior to tumor implantation are started on ezetimibe and SCH 48461 @ 30 mg/kg of body weight 2 weeks after tumor implantation.
Subcutaneous implantations of LNCaP cells into 4 quadrants of SCID mice (2×10^6 cells in 150 ul Matrigel per injection site) results in rapid tumor growth in intact and castrated hosts on a high cholesterol diet over an 8 week period. Two weeks after tumor cell implantation, the animals are given ezetimibe in their diet at 10 mg/kg body weight.

[5] = test system: BIO 87.20 male Syrian hamster; test: Ezetimibe treatment of BIO 87.20 male Syrian hamsters that develop spontaneous cystic prostatic hypertrophy and other tumors; format: in vivo
Source text: The BIO 87.20 male Syrian hamster is a well-known inbred line that develops, spontaneously, an age-dependent and genetic related cystic prostatic hypertrophy and is recognized in the art as an excellent model for human prostate disease. See, e.g., Homburger et al., 1970, Proc. Soc. Exptl. Biol. Med., 134:284-286; Homburger, 1972, Health Lab Sci., 9:103-111; Wang et al., 1976, Invest. Urol., 14:66-71. The BIO 87.20 strain of hamster develops multiple tumors after 12 months of age.
The stromal hyperplasia and changes in the epithelial cells are also observed upon microscopic examination. […] The BIO 87.20 and BIO 1.5 strains of male Syrian hamster are employed in the ezetimibe studies presented herein. […] Schaffner et al., Lipids 16:835-840 (1981). The defect in cholesterol synthesis and the development of cystic prostatic hypertrophy in the BIO 87.20 male hamster is related.
16 BIO 1.5 and 48 BIO 87.20 male Syrian hamsters are obtained from Bio Breeders, Inc. Boston, Mass. Among these animals, 8 BIO 1.5 and 24 BIO 87.20 hamsters are 6 months of age, while the remainder, consisting of […] and 24 BIO 87.20 hamsters, are 12 months of age. The animals are housed in individual cages. All animals are given water ad libitum and are housed under automatic regime of 12 hours artificial light and 12 hours darkness. Food consumption is be monitored to ensure equivalent intake in all animals. The drug, ezetimibe, is powdered and mixed into ground PURINA® hamster chow. Concentrations of ezetimibe, in the food, is adjusted according to quantity of food intake per hamster per day and expressed as average μg of ezetimibe per kg body weight per day.
The animals are divided into 8 experimental groups containing 8 animals each. The groups may be characterized as follows:
Control BIO 1.5 and control and treated BIO 87.20 male Syrian hamsters, both 6 and 12 months of age, are used as follows. In the treated group of BIO 87.20 male Syrian hamsters, ezetimibe is administered as a powder in the diet. Treatment with doses of ezetimibe of 100 and 1000 micrograms per kilogram body weight of the BIO 87.20 animals is continued for 6 months. […] After 6 months of treatment the animals are sacrificed and the prostate glands excised, weighed and preserved for histopathological examination.

O=C1N(c2ccc(F)cc2)[C@H](c2ccc(O)cc2)C12CCC(O)(c1ccc(Cl)cc1)CC2 (single isomer, unassigned; (+)) [SCH 58053, (+)-7-(4-chlorophenyl)-2-(4-flourophenyl)-7-hydroxy-3R-(4-hydroxyphenyl)-2-azaspiro[3,5]nonan-1-one]
serum cholesterol levels [1]: do not generally affect serum cholesterol levels | elevated serum cholesterol levels [1]: do lower elevated serum cholesterol levels

candicidin
tumor initiation and progression vs untreated controls [2]: inhibit tumor initiation and progression

CC[C@H](CC[C@@H](C)[C@H]1CC[C@H]2[C@@H]3CC=C4C[C@@H](O)CC[C@]4(C)[C@H]3CC[C@]12C)C(C)C [beta-sitosterol]
effectiveness in the treatment of benign prostatic hyperplasia [3]: effective

COc1ccc([C@@H]2[C@@H](CCCc3ccccc3)C(=O)N2c2ccc(OC)cc2)cc1 [SCH 48461]
tumor growth and progression vs untreated controls [4]: significant inhibition of tumor growth and progression | tumor volumes: progression and growth of the implanted tumors vs untreated controls [4]: significantly inhibits the progression and growth of the implanted tumors | serum cholesterol levels [1]: do not generally affect serum cholesterol levels | elevated serum cholesterol levels [1]: do lower elevated serum cholesterol levels

O=C1[C@H](CC[C@H](O)c2ccc(F)cc2)[C@@H](c2ccc(O)cc2)N1c1ccc(F)cc1 [ezetimibe, 1-(4-fluorophenyl)-(3R)-[3-(4-fluorophenyl)-(3S)-hydroxypropyl]-(45)-(4-hydroxyphenyl)-2-azetidinone]
tumor growth and progression vs untreated controls [4]: marked inhibition of tumor growth and progression | tumor volumes: progression and growth of the implanted tumors vs untreated controls [4]: significantly inhibits the progression and growth of the implanted tumors | effect of higher dose on inhibition and reversal of the prostate enlargement ([5]; 1000 μg/kg body weight): greater effect on the inhibition and reversal of the prostate enlargement | inhibitory effect on size increase of the prostate gland, higher vs lower dose ([5]; 1000 μg/kg body weight, beginning at 6 months of age, 6 months): greater inhibitory effect on size increase of the prostate gland | level of effect on ventral prostate weights, higher vs lower dose ([5]; 1000 vs 100 μg/kg body weight, beginning at 12 months of age, 6 months): significantly greater at the higher dosage | tumors at the end of the experiment vs BIO 87.20 control animals of the same age ([5]; as referred to Example II): no tumors | cystic prostatic hypertrophy on histopathological examination vs untreated controls ([5]; beginning at 6 months of age, after 6 months of treatment): marked reduction in the cystic prostatic hypertrophy | established prostatic enlargement (reversal) ([5]; beginning at 12 months of age, enlargement already present): reverses the prostatic enlargement | miscellaneous tumors other than that of the prostate gland ([5]; oral 1000 μg/kg body weight, beginning at 12 months of age, 6 months): very few tumors are observed | development of cystic prostatic hypertrophy ([5]; oral route): inhibits the development of cystic prostatic hypertrophy | other cholesterol-associated tumor formation ([5]; summary statement, dose not given): inhibits other cholesterol-associated tumor formation | histology of the prostates on histopathological examination ([5]; treated BIO 87.20 compared with BIO 1.5 prostate sections): more normal histology | prostatic enlargement / prostate gland volume vs untreated control BIO 87.20 ([5]; treatment beginning at 6 months of age, 6 months, 100 and 1000 μg/kg body weight in diet): inhibits prostatic enlargement; also recorded: marked inhibitory effect on the prostate gland volume | prostatic mass or volume / excised ventral prostate weights vs untreated BIO 87.20 controls ([5]; treatment beginning at 12 months of age, 6 months, 100 and 1000 μg/kg body weight): reduces the prostatic mass or volume; also recorded: markedly reduced | serum cholesterol levels [1]: do not generally affect serum cholesterol levels | elevated serum cholesterol levels [1]: do lower elevated serum cholesterol levels

Source: patent publication US7449453B2, “Compositions of ezetimibe and methods for the treatment of cholesterol-associated benign and malignant tumors” (Karykion Inc., priority 2002, dated 2008)
